Results: patent EP1910527B1, “MALTOSE-1-PHOSPHATE-PRODUCING ENZYME” (Kao Corporation, priority 2005, dated 2007)

Experiments:
M-1-P-producing enzyme [1] = test: Maltose transfer reaction without phosphate, HPLC analysis of products; type: biochemical, Corynebacterium glutamicum JCM1321; conditions: 2.0% substrate, 0.16 U/mL enzyme, one hour at 37°C
Procedure: As substrates, 2% dextrin MAX 1000 (Matsutani Chemical) and 1M phosphate buffer (pH 7) were employed. To the substrates, a suitably diluted enzyme was added, and the mixture was incubated for one hour at 37°C, followed by quantification of the produced […] through HPLC. Specifically, quantification of […] was performed through use of a DX500 chromatography system (product of DIONEX Corporation) (column: CarboPac PA1 (4x250 mm), detector: ED40 pulsed amperometric detector, eluent: (solution A) 100mM sodium hydroxide; (solution B) 100mM sodium hydroxide containing 1M sodium acetate). Linear gradient analysis was employed (initial concentration: solution.A 90% : solution B 10%, 0-17 min.: solution A 18.5% : solution B 81.5%). As standard substances, 100mM and 50mM […] products (product of SIGMA) were employed. […] One enzyme unit (1U) is defined as the amount of enzyme that produces 1 μM of […] per minute. 0.16 U/mL […]-producing enzyme was allowed to react with each of the substrates having different chain lengths (glucose, maltose, maltotriose, maltotetraose, maltopentaose, maltohexaose (Seikagaku Corporation)) (2.0%) for one hour at 37°C, and the reaction mixture was subjected to HPLC for analysis in a manner similar to that described in Example 1 (the results are represented as peak area). The retention times of maltooligosaccharides (DP=1 to 11) were estimated through analysis of dextrin (Matsutani Chemical).

M-1-P-producing enzyme [2] = test: Substrate specificity: production of M-1-P from phosphate and saccharide substrates, HPLC quantification; type: biochemical, Corynebacterium glutamicum JCM1321; conditions: 2.5% substrate, 250mM phosphate buffer (pH 7), 0.16 U/mL enzyme, 15 hours at 37°C
Procedure: As substrates, 2% dextrin MAX 1000 (Matsutani Chemical) and 1M phosphate buffer (pH 7) were employed. To the substrates, a suitably diluted enzyme was added, and the mixture was incubated for one hour at 37°C, followed by quantification of the produced […] through HPLC. Specifically, quantification of […] was performed through use of a DX500 chromatography system (product of DIONEX Corporation) (column: CarboPac PA1 (4x250 mm), detector: ED40 pulsed amperometric detector, eluent: (solution A) 100mM sodium hydroxide; (solution B) 100mM sodium hydroxide containing 1M sodium acetate). Linear gradient analysis was employed (initial concentration: solution.A 90% : solution B 10%, 0-17 min.: solution A 18.5% : solution B 81.5%). As standard substances, 100mM and 50mM […] products (product of SIGMA) were employed. […] One enzyme unit (1U) is defined as the amount of enzyme that produces 1 μM of […] per minute. To 2.5% Dextrin MAX 1000 (Matsutani Chemical) and 250mM phosphate buffer (pH 7), 0.16 U/mL M-1-P-producing enzyme was added, and the mixture was allowed to react for 15 hours at 37°C. In a manner similar to that described in Example 1, […] was quantified. […] To 250mM Phosphate buffer (pH 7) and each of substrates having different chain lengths (glucose, maltose, maltotriose, maltotetraose, maltopentaose, maltohexaose (Seikagaku Corporation)) (2.5%), 0.16 U/mL M-1-P-producing enzyme was added, and the mixture was allowed to react for 15 hours at 37°C. In a manner similar to that described in Example 1, […] was quantified.

Compound | Product (Peak area x 10^6): DP=3 (M-1-P-producing enzyme [1]) | Product (Peak area x 10^6): DP=4 (M-1-P-producing enzyme [1]) | Product (Peak area x 10^6): DP=5 (M-1-P-producing enzyme [1]) | Product (Peak area x 10^6): DP=6 (M-1-P-producing enzyme [1]) | Product (Peak area x 10^6): DP=7 (M-1-P-producing enzyme [1]) | Product (Peak area x 10^6): DP=8 (M-1-P-producing enzyme [1]) | Product (Peak area x 10^6): DP=9 (M-1-P-producing enzyme [1]) | Product (Peak area x 10^6): DP=10 (M-1-P-producing enzyme [1]) | Product (Peak area x 10^6): DP=11 (M-1-P-producing enzyme [1]) | Product (Peak area x 10^6): Glucose (M-1-P-producing enzyme [1]) | Product (Peak area x 10^6): Maltose (M-1-P-producing enzyme [1]) | Amount of maltose-1-phosphate produced (M-1-P-producing enzyme [2])
OC[C@H]1O[C@H](O[C@H]2[C@H](O)[C@@H](O)[C@@H](O[C@H]3[C@H](O)[C@@H](O)[C@@H](O[C@H]4[C@H](O)[C@@H](O)[C@@H](O[C@H]5[C@H](O)[C@@H](O)[C@@H](O[C@H]6[C@H](O)[C@@H](O)C(O)O[C@@H]6CO)O[C@@H]5CO)O[C@@H]4CO)O[C@@H]3CO)O[C@@H]2CO)[C@H](O)[C@@H](O)[C@@H]1O (some centres unmarked) [Maltohexaose] | 0.37 x 10^6 | 10.20 x 10^6 | 0.00 x 10^6 | 8.87 x 10^6 | 0.00 x 10^6 | 5.04 x 10^6 | 0.00 x 10^6 | 3.96 x 10^6 | 0.00 x 10^6 | 0.05 x 10^6 | 0.61 x 10^6 | 49.6 µM
OC[C@H]1O[C@H](O[C@H]2[C@H](O)[C@@H](O)[C@@H](O[C@H]3[C@H](O)[C@@H](O)[C@@H](O[C@H]4[C@H](O)[C@@H](O)[C@@H](O[C@H]5[C@H](O)[C@@H](O)[C@@H](O[C@H]6[C@H](O)[C@@H](O)[C@@H](O[C@H]7[C@H](O)[C@@H](O)C(O)O[C@@H]7CO)O[C@@H]6CO)O[C@@H]5CO)O[C@@H]4CO)O[C@@H]3CO)O[C@@H]2CO)[C@H](O)[C@@H](O)[C@@H]1O (some centres unmarked) [Maltoheptaose] | 0.12 x 10^6 | 0.19 x 10^6 | 9.59 x 10^6 | 0.00 x 10^6 | 6.36 x 10^6 | 0.00 x 10^6 | 3.42 x 10^6 | 0.00 x 10^6 | 3.47 x 10^6 | 0.11 x 10^6 | 0.28 x 10^6 | 96.1 µM
OC[C@H]1O[C@H](O[C@H]2[C@H](O)[C@@H](O)[C@@H](O[C@H]3[C@H](O)[C@@H](O)[C@@H](O[C@H]4[C@H](O)[C@@H](O)[C@@H](O[C@H]5[C@H](O)[C@@H](O)C(O)O[C@@H]5CO)O[C@@H]4CO)O[C@@H]3CO)O[C@@H]2CO)[C@H](O)[C@@H](O)[C@@H]1O (some centres unmarked) [Maltopentaose] | 0.51 x 10^6 | 0.58 x 10^6 | 26.40 x 10^6 | 0.00 x 10^6 | 0.52 x 10^6 | 0.00 x 10^6 | 0.00 x 10^6 | 0.00 x 10^6 | 0.00 x 10^6 | 0.09 x 10^6 | 0.27 x 10^6 | 1.04 µM
OC[C@H]1OC(O)[C@H](O)[C@@H](O)[C@@H]1O (some centres unmarked) [Glucose] | 0.00 x 10^6 | 0.00 x 10^6 | 0.00 x 10^6 | 0.00 x 10^6 | 0.00 x 10^6 | 0.00 x 10^6 | 0.00 x 10^6 | 0.00 x 10^6 | 0.00 x 10^6 | 65.97 x 10^6 | 0.00 x 10^6 | 

Second part, the compound after the results:

Product (Peak area x 10^6): DP=3 (M-1-P-producing enzyme [1]) | Product (Peak area x 10^6): DP=4 (M-1-P-producing enzyme [1]) | Product (Peak area x 10^6): DP=5 (M-1-P-producing enzyme [1]) | Product (Peak area x 10^6): DP=6 (M-1-P-producing enzyme [1]) | Product (Peak area x 10^6): DP=7 (M-1-P-producing enzyme [1]) | Product (Peak area x 10^6): DP=8 (M-1-P-producing enzyme [1]) | Product (Peak area x 10^6): DP=9 (M-1-P-producing enzyme [1]) | Product (Peak area x 10^6): DP=10 (M-1-P-producing enzyme [1]) | Product (Peak area x 10^6): DP=11 (M-1-P-producing enzyme [1]) | Product (Peak area x 10^6): Glucose (M-1-P-producing enzyme [1]) | Product (Peak area x 10^6): Maltose (M-1-P-producing enzyme [1]) | Amount of maltose-1-phosphate produced (M-1-P-producing enzyme [2]) | Compound
0.27 x 10^6 | 0.00 x 10^6 | 0.00 x 10^6 | 0.00 x 10^6 | 0.00 x 10^6 | 0.00 x 10^6 | 0.00 x 10^6 | 0.00 x 10^6 | 0.00 x 10^6 | 0.19 x 10^6 | 46.79 x 10^6 |  | OC[C@H]1O[C@H](O[C@H]2[C@H](O)[C@@H](O)C(O)O[C@@H]2CO)[C@H](O)[C@@H](O)[C@@H]1O (mixture of isomers) [Maltose]
1.25 x 10^6 | 30.80 x 10^6 | 0.00 x 10^6 | 0.36 x 10^6 | 0.00 x 10^6 | 0.00 x 10^6 | 0.00 x 10^6 | 0.00 x 10^6 | 0.00 x 10^6 | 0.19 x 10^6 | 0.15 x 10^6 |  | OC[C@H]1O[C@H](O[C@H]2[C@H](O)[C@@H](O)[C@@H](O[C@H]3[C@H](O)[C@@H](O)[C@@H](O[C@H]4[C@H](O)[C@@H](O)C(O)O[C@@H]4CO)O[C@@H]3CO)O[C@@H]2CO)[C@H](O)[C@@H](O)[C@@H]1O (some centres unmarked) [Maltotetraose]
33.27 x 10^6 | 0.12 x 10^6 | 0.00 x 10^6 | 0.00 x 10^6 | 0.00 x 10^6 | 0.00 x 10^6 | 0.00 x 10^6 | 0.00 x 10^6 | 0.00 x 10^6 | 0.52 x 10^6 | 1.84 x 10^6 |  | OC[C@H]1O[C@H](O[C@H]2[C@H](O)[C@@H](O)[C@@H](O[C@H]3[C@H](O)[C@@H](O)C(O)O[C@@H]3CO)O[C@@H]2CO)[C@H](O)[C@@H](O)[C@@H]1O (some centres unmarked) [Maltotriose]
